The text below walks through data of patent US12077503B2, “Substituted cyclic amides and their use as herbicides” (FMC CORPORATION, priority 2015, dated 2024).

Read-outs that look alike come from different tables or passages of the source.

What all share (format): in vivo
The subject of one assay is Kochia (Kochia scoparia). The experiment in a line: Test A preemergence. Conditions: Bassia scoparia, pre-emergence, 240 h; for pest or weed control at 125 g/ha: 125 g ai/ha; for pest or weed control at 500 g/ha: 500 g ai/ha. The method, boiled down: (§1)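 Treatment is preemergence as a directed soil spray after planting, or postemergence at the one- to two-leaf stage, with test chemical in a non-phytotoxic solvent mixture plus surfactant. Plants stay in the greenhouse about 10 d before visual injury scoring on a 0 to 100 scale versus untreated controls.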

For assay [1], the system named is pigweed (Amaranthus retroflexus). The experiment in a line: Test A preemergence. Conditions: Amaranthus retroflexus, pre-emergence, 240 h; for pest or weed control at 125 g/ha: 125 g ai/ha; for pest or weed control at 500 g/ha: 500 g ai/ha.
Assay [2] concerns ryegrass, Italian (Italian ryegrass, Lolium multiflorum). The experiment in a line: Test A preemergence. Conditions: Lolium multiflorum, pre-emergence, 240 h; for pest or weed control at 125 g/ha: 125 g ai/ha; for pest or weed control at 500 g/ha: 500 g ai/ha. The method, boiled down: as §1
Assay [3] concerns barnyardgrass (Echinochloa crus-galli). The experiment in a line: Test A preemergence. The conditions noted are these: Echinochloa crus-galli, pre-emergence, 240 h; for pest or weed control at 125 g/ha: 125 g ai/ha; for pest or weed control at 500 g/ha: 500 g ai/ha. In outline:
as §1

The subject of assay [4] is giant foxtail (Setaria faberii). The assay is described as follows: Test A preemergence. The conditions noted are these: Setaria faberi, pre-emergence, 240 h; for pest or weed control at 125 g/ha: 125 g ai/ha; for pest or weed control at 500 g/ha: 500 g ai/ha. The method, boiled down: as §1
Assay [5] relates to ragweed (common ragweed, Ambrosia elatior). The experiment in a line: Test A preemergence. Conditions: Ambrosia artemisiifolia, pre-emergence, 240 h; for pest or weed control at 125 g/ha: 125 g ai/ha; for pest or weed control at 500 g/ha: 500 g ai/ha. The method, boiled down: as §1
Assay [6] relates to Galium (catchweed bedstraw, Galium aparine). The experiment in a line: Test A postemergence. The conditions noted are these: Galium, post-emergence, 240 h, postemergence; for pest or weed control at 125 g/ha: 125 g ai/ha. The method, boiled down:
as §1

In the next assay the test system is corn (Zea mays). The experiment in a line: Test A postemergence. Conditions: Zea mays, post-emergence, 240 h. In outline: as §1
In assay [7] the test system is barnyardgrass (Echinochloa crus-galli). The assay is described as follows: Test A postemergence. The conditions noted are these: Echinochloa crus-galli, post-emergence, 240 h; for pest or weed control at 125 g/ha: 125 g ai/ha. In outline:
as §1

Assay [8] concerns ragweed (common ragweed, Ambrosia elatior). The assay is described as follows: Test A postemergence. Conditions: Ambrosia artemisiifolia, post-emergence, 240 h, postemergence; for pest or weed control at 125 g/ha: 125 g ai/ha. The method, boiled down: as §1
Assay [9] has as its system ducksalad (Heteranthera limosa). The experiment in a line: Test B flooded paddy test. The conditions noted are these: Heteranthera limosa, 250 g ai/ha, Flood, read-out: Ducksalad plant response rating. The method, boiled down:
(§2)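 Response scored visually against untreated controls, 0 = no effect and 100 = complete control, 13–15 d after treatment in the greenhouse. Compounds added to paddy water held 3 cm above soil surface. Treatment given at 2-leaf stage.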

Another assay deals with rice (Oryra sativa). The experiment in a line: Test B flooded paddy test. Conditions: Oryza sativa, 250 g ai/ha, Flood, read-out: Rice plant response rating. The method, boiled down:
as §2

In assay [10] the test system is barnyardgrass (Echinochloa crus-galli). The assay is described as follows: Test B flooded paddy test. The conditions noted are these: Echinochloa crus-galli, 250 g ai/ha, Flood, read-out: Barnyardgrass plant response rating. In outline:
as §2

In assay [11] the test system is sedge, umbrella (small-flower umbrella sedge, Cyperus difformis). The assay is described as follows: Test B flooded paddy test. The conditions noted are these: Cyperus difformis, 250 g ai/ha, Flood, read-out: Sedge, Umbrella plant response rating. The method, boiled down: as §2
The mark [12] stands for this setting: 0 to 100 scale where 0 is no effect and 100 is complete control.
Setting [13] is: scale of 0 to 100 where 0 is no effect and 100 is complete control.

For the compound `O=C1NC[C@H](c2ccc3c(c2)OCO3)[C@H]1C(=O)Nc1ccc(F)c(F)c1F` [Compound 1027], the pest or weed control at 125 g/ha turned out to be 80% in the assay on Kochia (Kochia scoparia) (Preemergence, visual injury rating after approximately 10 d, read-out: Kochia plant response rating (0 to 100 scale, 0 is no effect, 100 is complete control)); 0% in assay [1] (Preemergence, visual injury rating after approximately 10 d, read-out: Pigweed plant response rating (0 to 100 scale, 0 is no effect, 100 is complete control)); 30% in assay [2] (Preemergence, visual injury rating after approximately 10 d, read-out: Ryegrass, Italian plant response rating (0 to 100 scale, 0 is no effect, 100 is complete control)); 90% in assay [3] (Preemergence, visual injury rating after approximately 10 d, read-out: Barnyardgrass plant response rating (0 to 100 scale, 0 is no effect, 100 is complete control)); 40% in [4] (Preemergence, visual injury rating after approximately 10 d, read-out: Foxtail, Giant plant response rating (0 to 100 scale, 0 is no effect, 100 is complete control)); 70% in [5] (Preemergence, visual injury rating after approximately 10 d, read-out: Ragweed plant response rating (0 to 100 scale, 0 is no effect, 100 is complete control)). Besides, the pest or weed control at 125 g/ha turned out to be 50% in assay [6] (visual injury on 0 to 100 scale (0 no effect, 100 complete control), approx. 10 d, read-out: Galium plant response rating); 70% in assay [7] (Postemergence, visual injury after approximately 10 d, 0 to 100 scale where 0 is no effect and 100 is complete control, read-out: Plant response rating, Barnyardgrass); 0% in assay [8] (visual injury on 0 to 100 scale (0 no effect, 100 complete control), approx. 10 d, read-out: Ragweed plant response rating). Moreover, the pest or weed control at 500 g/ha in the assay on Kochia (Kochia scoparia) (preemergence, visual injury rating about 10 d after treatment, 0 to 100 scale (0 no effect, 100 complete control), read-out: Kochia plant response rating) was found to be 90%; in [1] (preemergence, visual injury rating about 10 d after treatment, 0 to 100 scale (0 no effect, 100 complete control), read-out: Pigweed plant response rating), 40%; in assay [2] (preemergence, visual injury rating about 10 d after treatment, 0 to 100 scale (0 no effect, 100 complete control), read-out: Ryegrass, Italian plant response rating), 0%; in assay [3] (preemergence, visual injury rating about 10 d after treatment, 0 to 100 scale (0 no effect, 100 complete control), read-out: Barnyardgrass plant response rating), 90%; in assay [4] (preemergence, visual injury rating about 10 d after treatment, 0 to 100 scale (0 no effect, 100 complete control), read-out: Foxtail, Giant plant response rating), 90%; in assay [5] (preemergence, visual injury rating about 10 d after treatment, 0 to 100 scale (0 no effect, 100 complete control), read-out: Ragweed plant response rating), 80%. For the same compound, the pest or weed control at 500 g/ha is 70% in [6] (500 g ai/ha, visual injury, 0 to 100 scale (0 no effect, 100 complete control), approx. 10 d, read-out: Plant response rating, Galium); 90% in assay [7] (500 g ai/ha, postemergence, visual injury, 0 to 100 scale (0 no effect, 100 complete control), approx. 10 d, read-out: Plant response rating, Barnyardgrass); 0% in assay [8] (500 g ai/ha, visual injury, 0 to 100 scale (0 no effect, 100 complete control), approx. 10 d, read-out: Plant response rating, Ragweed). Also, the Corn plant response rating (crop injury, 0 = no effect, 100 = complete kill) at 125 g/ha in the assay on corn (Zea mays) (125 g ai/ha, Postemergence, visual injury after approximately 10 d, 0 to 100 scale where 0 is no effect and 100 is complete control) is 0%. In addition, the Corn plant response rating (crop injury, 0 = no effect, 100 = complete kill) at 500 g/ha with corn (Zea mays) (500 g ai/ha, postemergence, visual injury, 0 to 100 scale (0 no effect, 100 complete control), approx. 10 d) turned out to be 0%. Moreover, the pest or weed control at 250 g/ha in [9] (setting [12]) worked out at 100%; with rice (Oryra sativa) (setting [12]), 30%; in assay [10] (setting [12]), 40%; in [11] (setting [12]), 0%.
For `COc1c(F)ccc([C@H]2CN(C)C(=O)[C@@H]2C(=O)Nc2ccccc2C(F)(F)F)c1Cl` [Compound 896], the pest or weed control at 125 g/ha stood at 30% in the assay with Kochia (Kochia scoparia) (preemergence, 0 to 100 scale where 0 is no effect and 100 is complete control, read-out: Kochia plant response rating); 20% in [1] (preemergence, 0 to 100 scale where 0 is no effect and 100 is complete control, read-out: Pigweed plant response rating); 40% in assay [2] (preemergence, 0 to 100 scale where 0 is no effect and 100 is complete control, read-out: Ryegrass, Italian plant response rating); 90% in assay [3] (preemergence, 0 to 100 scale where 0 is no effect and 100 is complete control, read-out: Barnyardgrass plant response rating); 90% in [4] (preemergence, 0 to 100 scale where 0 is no effect and 100 is complete control, read-out: Foxtail, Giant plant response rating); 0% in [5] (preemergence, 0 to 100 scale where 0 is no effect and 100 is complete control, read-out: Ragweed plant response rating). Moreover, the pest or weed control at 125 g/ha stood at 40% in [6] (visual injury rating after approximately 10 d, read-out: Galium plant response rating (0 to 100 scale, 0 no effect, 100 complete control)); 90% in assay [7] (postemergence, visual injury rating after approximately 10 d, read-out: Barnyardgrass plant response rating (0 to 100 scale, 0 no effect, 100 complete control)); 0% in [8] (visual injury rating after approximately 10 d, read-out: Ragweed plant response rating (0 to 100 scale, 0 no effect, 100 complete control)). In addition, the pest or weed control at 500 g/ha with Kochia (Kochia scoparia) (Preemergence, visual injury vs untreated controls after approximately 10 d, read-out: Kochia plant response rating (0 to 100 scale where 0 is no effect and 100 is complete control)) was found to be 50%; in [1] (Preemergence, visual injury vs untreated controls after approximately 10 d, read-out: Pigweed plant response rating (0 to 100 scale where 0 is no effect and 100 is complete control)) it was 40%; in assay [2] (Preemergence, visual injury vs untreated controls after approximately 10 d, read-out: Ryegrass, Italian plant response rating (0 to 100 scale where 0 is no effect and 100 is complete control)) it was 70%; in assay [3] (Preemergence, visual injury vs untreated controls after approximately 10 d, read-out: Barnyardgrass plant response rating (0 to 100 scale where 0 is no effect and 100 is complete control)) it was 90%; in assay [4] (Preemergence, visual injury vs untreated controls after approximately 10 d, read-out: Foxtail, Giant plant response rating (0 to 100 scale where 0 is no effect and 100 is complete control)) it was 100%; in assay [5] (Preemergence, visual injury vs untreated controls after approximately 10 d, read-out: Ragweed plant response rating (0 to 100 scale where 0 is no effect and 100 is complete control)), 0%. Also, the plant injury at 125 g/ha with corn (Zea mays) (125 g ai/ha, postemergence, visual injury rating after approximately 10 d, read-out: Corn plant response rating (0 to 100 scale, 0 no effect, 100 complete control)) came out at 20%. In addition, the pest or weed control at 250 g/ha in assay [9] (setting [13]) amounted to 25%; in the assay with rice (Oryra sativa) (setting [13]), 20%; in [10] (setting [13]), 45%; in assay [11] (setting [13]), 0%.
